According to publication PMC4411102 (PLoS ONE, 2015):
No end group written: not given here.

Legend:
CXCR4 = conditions: cited from earlier work
CCR5 = tested on: CCR5; parameters: method as in PMID 20721836; conditions: cited from earlier work
vaginal mucosa = conditions: cited from earlier work
From the text: Its activity is directed more towards the virus than to host cells. Some of the known anti-HIV peptides such as defensins have better selectivity index, but many of such peptides/molecules act as a double edged-sword. These peptides inhibit HIV infection but also lead to inflammation and/or potentiate pathogen invasion.

HIV = conditions: cited from earlier work
From the text: HIV-1 infection can be targeted at various stages, for example, viral entry, viral replication or assembly of viral components. HIV entry into the host cells is facilitated by binding of viral envelope glycoprotein (gp120) to host CD4 receptor [3, 4]. CD4-gp120 interaction initiates a cascade of events that stimulates gp41 to promote viral and host membrane fusion. Inhibition of gp120-CD4 interaction or virus-host cell fusion thus appears to be an attractive strategy to prevent HIV-1 infection. Towards this, significant advances have been made. […] Moreover, some of the AMPs cause adverse effects on vaginal commensals like lactobacilli which are required to maintain low pH in vaginal mucosa.

HIV-host cell fusion = conditions: cited from earlier work
HIV-1 IIIB and ADA5 = assay: Time-of-addition assay in TZM-bl cells; conditions: 71.40 μM
Method: Luciferase activity was measured at 48 hrs post treatment using Luminometer (ELx-800, Bio-Tek Instruments, USA). VRC01 (0.1 μM) antibody was used as a positive control.

gp120 of HIV-1 BaL = assay: Binding ELISA, gp120 of HIV-1 BaL; conditions: 2.2–71.40 μM coated, gp120 100ng/well
Method: (§1) After blocking with 3% bovine serum albumin (BSA) in PBS for 30 min, 100 μl of gp120 (100ng/well) in PBS-0.05% BSA was added to each well and incubated for 2 hrs at 37°C. After three washings with PBS-Tween-20 (PBS-T), cells were incubated with anti-gp120 antibody at 1:200 dilution and then with horse radish peroxidase-(HRP) conjugated secondary goat anti-human antibody (1:10000 dilution) for 1 hr at 37°C. This was followed by incubation with O-phenylenediamine for 20 min. The absorbance was measured at 492 nm on a microplate ELISA reader (ELx-800, Bio-Tek Instruments, USA). Background values obtained in the wells without HbAHP-25 were subtracted from the absorbance values from wells having all other reagents.

gp120 of HIV-1 IIIB = assay: Binding ELISA, gp120 of HIV-1 IIIB; conditions: for Binding of designed peptides to gp120: peptide-coated plate, 500ng gp120, 2 hrs at 37°C, 492nm (S1 Fig)
Method: as §1
Supplementary file pone.0124839.s001.tif: S1 Fig Binding of designed peptides to gp120. Peptides that were designed in silico were evaluated for their binding to gp120 of HIV-1 IIIB. Peptides were coated on 96 well microtiter plate for 16 hrs and then incubated with 500ng of gp120 for 2 hrs at 37°C. This was followed by addition of anti-gp120 antibody, and absorbance was read at 492nm. Background absorbance was subtracted from the wells where peptides were not coated. […] (TIF) Click here for additional data file.

HIV-1 IIIB = assay: Anti-HIV activity, p24 antigen assay in H9 cells; assay type: cell-based; parameters: key to Anti-HIV activity: +: moderate; ++: significant; NA: No activity; conditions: for Anti-HIV activity (in words): 0.1 MoI HIV-1 IIIB pre-incubated with peptide, H9 cells, p24 on day 4
Method: Supplementary file pone.0124839.s002.tif: S2 Fig Anti-HIV activity of 3 designed peptides. Anti HIV activity of three peptides was determined using H9 cells. H9 cells were infected for 4 hrs with 0.1 MoI of HIV-1 IIIB pre-incubated with various concentrations of peptides. Peptides were added post infection as well. Supernatant was collected on day 4 post infection, and p24 antigen assay was performed. […] (TIF) Click here for additional data file.
Supplementary file pone.0124839.s003.tif: S3 Fig Anti-HIV activity of peptide analogues of peptide 1. After modifying the peptide 1, we performed anti-HIV assay as earlier. HIV-1 IIIB was pre-incubated with peptide analogues for 1 hr and then added to H9 cells for 4 hrs. Levels of p24 levels were determined on day 4 post infection. […] (TIF) Click here for additional data file.

## c1cc(CN2CCCNCCNCCCNCC2)ccc1CN1CCCNCCNCCCNCC1 [AMD3100]
CXCR4
  CXCR4 antagonism: CXCR4 antagonists

## CCCCOCCOc1ccc(-c2ccc3c(c2)/C=C(/C(=O)Nc2ccc([S@@+]([O-])Cc4cncn4CCC)cc2)CCCN3CC(C)C)cc1 [Cencriviroc]
CCR5
  CCR5 antagonism: CCR5 antagonists

## CCCCCCCCCc1ccc(OCCOCCOCCOCCOCCOCCOCCOCCOCCO)cc1 [Nonoxynol-9]
Vaginal mucosa
  Effects on vaginal mucosa: caused detrimental effects on vaginal mucosa

## Enfuvirtide
HIV
  Alleviation of HIV infections: alleviate HIV infections effectively
HIV; mutations in gp41
  Resistance on long term treatment: leads to resistance
HIV-host cell fusion
  Effect on HIV-host cell fusion: interfere with the HIV-host cell fusion

## PLVKDVLRSLCNHAHKCVTLALLRH [Scrambled peptide(sP), 25 mer scrambled peptide, negative control]
HIV-1 IIIB and ADA5
  Inhibition (scrambled control): no inhibition
gp120 of HIV-1 BaL
  Binding to recombinant gp120 of HIV-1 BaL: did not bind
gp120 of HIV-1 IIIB; ELISA, 2.2–71.40 μM coated, gp120 100ng/well
  Binding to recombinant gp120 of HIV-1 IIIB: did not bind

## SAQVKGHGKKVADALTNAVAHVDDMPNAL [Peptide-2, Hb-α subunit derived 29-residue peptide (52–80)]
gp120 of HIV-1 IIIB
  Binding of designed peptides to gp120: failed to show any binding
HIV-1 IIIB; listed as peptide 2
  Anti-HIV activity (in words): failed to demonstrate any activity
HIV-1 IIIB; listed as peptide-2
  Anti-HIV activity (in words): did not show any anti-HIV-1 activity

## VKGHGKKVADALTNAVAHVDDMPNALSAL [Peptide-3, Hb-α subunit derived 29-residue peptide (55–83)]
gp120 of HIV-1 IIIB
  Binding of designed peptides to gp120: showed binding to gp120 of HIV-1 IIIB
HIV-1 IIIB
  Anti-HIV activity (in words): showed anti-HIV activity
HIV-1 IIIB; class symbols of Table 1, HIV-1 IIIB in H9 cells, p24 (S2, S3 Fig)
  Anti-HIV activity: +

## human defensin-6: antimicrobial peptide, printed as human defensin-5 and 6 (AFTCHCRRSCYSTEYSYGTCTVMGINHRFCCL; ends and bridges not checked; cysteine pairing not given here; UniProt Q01524 69-100, looked up)
HIV
  Effect on HIV infection: exacerbate HIV infection

## indolicidin: natural antimicrobial peptide (ILPWKWPWWPWRR; not fully specified (C-terminus); ends and bridges not checked; UniProt P33046 131-143, looked up)
HIV
  Anti-HIV activity: reported to have anti-HIV activity
